Measurements reported in patent US20250115640A1, “NEUROPROTECTIVE POLYPEPTIDE COMPOUND AND APPLICATION THEREOF” (Innerse (Zhuhai) Pharmaceutical Co., Ltd., priority 2021, published 2025).
“And” between values parts separate entries of the source, which are not always exact repeats. Equal entries are not always repeated. “Also recorded” adds a separate entry of the source. Square brackets hold non-standard residues; d marks the D form. Ends that are not written are not given here. Peptide text beside a SMILES is read from it. βAla = NCCC(=O)O

Key:
[1] = Body weight of MCAO model animals (Example 6); type: in vivo, Sprague-Dawley (SD) rats; conditions: individual animal
Description: • Animals measured: all the surviving experimental animals planned to be measured; • Measurement time: the body weight was measured at least twice during the adaptation period, once 24 hours before surgery for grouping, and once 24 hours after surgery.
Cerebral ischemia-reperfusion is an acute injury model, wherein the weight of experimental animals will drop dramatically after MCAO modeling. Thus, the weight of experimental animals is one of the most basic sensitive parameters to comprehensively reflect the health status of animals. In this experiment, the body weight of all the animals was monitored on the day before the surgery and on the first day after the surgery, and the changes of animal's body weight were observed and recorded.

[2] = General status observation and autopsy findings of MCAO model animals (Example 6); type: in vivo, Sprague-Dawley (SD) rats; conditions: 24 hours after administration; single animals
Description: After the adaptation period, animals weighing 240-290 g were selected for dividing into groups for modeling. 24 hours after administration, the animal numbered 2M006 in the S3 group was found dead. […] The data of the above animals was not included in the final statistical analysis. The data of the remaining animals in each group was included in the final statistical analysis. The number of animals included in the final statistical analysis was 8 animals for the model control group, 7 animals for S3 group, 9 animals for the t-PA group and 7 animals for S3+t-PA group.
• Animals observed: all the surviving animals planned to be observed; • Observation time: once a day, and the frequency can be increased if the animal starts to behave abnormal; • What were observed: including but not limited to general manifestations, behavioral status, eye, mouth, nose and mouth area, ear, hair and skin, feces, urine, genital organ and other toxic symptoms. A detailed description was required if there was any abnormality.

[3] = tested on: rat model of cerebral ischemia via middle cerebral artery occlusion (MCAO); assay: Rat MCAO cerebral ischemia model, TTC staining, cerebral infarct volume (Example 5); type: in vivo, SD rats; conditions: 3 mg/kg tail vein 1-2 h after ligation, TTC after 22-24 h
Description: In order to determine use of the synthetic peptides provided herein in a neurological disease, SD rats were used to prepare a rat model of cerebral ischemia via middle cerebral artery occlusion (MCAO). These rats were injected intravenously 1-2 hours after ischemia, and subjected for a behavioral observation and scoring after 22-24 hours. After the behavioral observation, the rats were euthanized and their brains were removed, cut to sections and stained with TTC for quantitative analysis, and the cerebral infarct volume % was calculated. The experimental SD rats were weighed and anesthetized with chloral hydrate. After anesthesia, the limbs of the rats were fixed, and the rats were placed in a supine position, connected to the small-animal monitor, and monitored for important physiological parameters such as body temperature, blood pressure and heart rate, etc. The rats were shaved at neck and disinfected with 75% alcohol cotton ball. […] The experimental rats were monitored with the small-animal monitor to evaluate if their physiological parameters were normal, and the rats were placed on a small-animal electric blanket to keep their body temperature until they waked up and placed in animal cages. […] The quantitative analysis of photos after TTC staining was performed using Image J software. […]

[4] = tested on: rat model of cerebral ischemia via middle cerebral artery occlusion (MCAO); assay: Rat MCAO cerebral ischemia model, behavioral observation and scoring 0-5 (Example 5); type: in vivo, SD rats; conditions: 3 mg/kg tail vein, scoring 22-24 h after ligation, scale 0-5; for Behavioral score, mean value: group mean, 6 rats
Description: In order to determine use of the synthetic peptides provided herein in a neurological disease, SD rats were used to prepare a rat model of cerebral ischemia via middle cerebral artery occlusion (MCAO). These rats were injected intravenously 1-2 hours after ischemia, and subjected for a behavioral observation and scoring after 22-24 hours. After the behavioral observation, the rats were euthanized and their brains were removed, cut to sections and stained with TTC for quantitative analysis, and the cerebral infarct volume % was calculated. The experimental SD rats were weighed and anesthetized with chloral hydrate. After anesthesia, the limbs of the rats were fixed, and the rats were placed in a supine position, connected to the small-animal monitor, and monitored for important physiological parameters such as body temperature, blood pressure and heart rate, etc. The rats were shaved at neck and disinfected with 75% alcohol cotton ball. A middle incision of about 2 cm length was then made on the neck of the rats, and the submandibular gland of the rats was bluntly separated while avoiding damage to the gland. Then, the left common carotid artery (CCA) of the rats was bluntly separated, and the internal carotid artery (ICA) and external carotid artery (ECA) were carefully separated upward along the CCA. Any damage to vagus nerves was avoided during the separation. The CCA and ICA were clamped respectively with two artery clamps, and the distal end of the ECA was cut off. A silicone suture emboli was inserted into the ECA “port” to the ICA artery clamp. Then the artery clamp was quickly loosened and the tip of the suture emboli was pushed forward through the artery clamp quickly before clamping the ICA again. […] The experimental rats were monitored with the small-animal monitor to evaluate if their physiological parameters were normal, and the rats were placed on a small-animal electric blanket to keep their body temperature until they waked up and placed in animal cages. […]

[5] = tested on: acute ischemic stroke due to large vessel occlusion; conditions: cited from earlier work

Molecule | Body weight D 2, individual animals ([1]; after surgery and administration) | Body weight D 0, individual animals ([1]; before surgery (baseline)) | Death and autopsy findings in animals excluded from statistical analysis [2] | Cerebral infarct volume (TTC quantification), mean value ([3]; group mean, 6 rats) | Cerebral infarct volume (TTC quantification), individual rats No. 1-6 ([3]; individual rat, listed as S1(NA1)) | Behavioral score, mean value [4] | Behavioral score, mean value ([4]; listed as NA1) | Behavioral score, individual rats No. 1-6 ([4]; individual rat) | Serious adverse events ([5]; human, in vivo) | Proportion of patients with an mRS score of 0-2 within 90 days ([5]; single dose of 2.6 mg/kg, maximum 270 mg, 549 patients, placebo 59.2%) [%]
CC[C@H](C)[C@H](NC(=O)[C@H](CO)NC(=O)[C@H](CO)NC(=O)[C@H](CC(C)C)NC(=O)[C@H](CCCCN)NC(=O)[C@H](Cc1c[nH]cn1)NC(=O)CCN)C(=O)N[C@@H](CCC(=O)O)C(=O)N[C@@H](CO)C(=O)N[C@@H](CC(=O)O)C(=O)N[C@H](C(=O)O)C(C)C [Example S3, beta-Ala-His-Lys-Leu-Ser-Ser-Ile-Glu-Ser-Asp-Val] (H-[βAla]HKLSSIESDV-OH) | 232.57 g and 249.67 g and 201.22 g and 228.45 g and 202.45 g and 195.33 g and 217.36 g | 281.72 g and 266.48 g and 253.24 g and 286.91 g and 258.64 g and 247.34 g and 273.73 g | found dead; also recorded: subarachnoid hemorrhage |  |  |  |  |  |  | 
YGRKKRRQRRRKLSSIESDV [Example S1] |  |  |  | 0.157 | 0.187 and 0.218 and 0.153 and 0.145 and 0.107 and 0.134 | 2.0 | 2.0±0.6 | 2 (4×) and 1 and 3 | occurred equally between groups | 61.4
